According to publication PMC6271945, “Avicequinone C Isolated from Avicennia marina Exhibits 5α-Reductase-Type 1 Inhibitory Activity Using an Androgenic Alopecia Relevant Cell-Based Assay System” (Molecules, 2014):

Legend:
[1] = molecular target: T1, 5α-reductase type 1 (5α-R1) (Homo sapiens, UniProt P18405); assay: HHDPC cell-based assay of testosterone to […]α-DHT conversion (endogenous […]α-R1), non-radioactive TLC detection
T1 construct: gene SRD5A1
T1 sequence (P18405 1-259): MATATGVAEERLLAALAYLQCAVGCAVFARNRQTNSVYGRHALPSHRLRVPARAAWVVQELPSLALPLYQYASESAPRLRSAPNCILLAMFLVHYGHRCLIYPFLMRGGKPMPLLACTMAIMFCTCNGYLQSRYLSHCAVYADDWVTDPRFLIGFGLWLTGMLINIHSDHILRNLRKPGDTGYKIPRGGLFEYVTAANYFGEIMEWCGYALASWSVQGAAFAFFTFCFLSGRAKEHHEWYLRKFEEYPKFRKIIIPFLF

[2] = molecular target: T1, 5α-reductase type 1 (5α-R1); assay: HHDPC cell-based assay of testosterone to […]α-DHT conversion (endogenous […]α-R1), TLC detection; positive control

Row | IC50 [1] [µM] | SMILES | HHDPC cell-based assay of testosterone to 5α-DHT conversion (endogenous 5α-R1), [2]
1 | 38.8 ± 1.29 | CC(C)(O)c1cc2c(o1)C(=O)c1ccccc1C2=O [G1, naphtho 2'-(1-hydroxy-1-methylethyl)[2,3-β]furan-1,4-dione] | 
2 |  | C[C@]12C=CC(=O)N[C@@H]1CC[C@@H]1[C@@H]2CC[C@]2(C)[C@@H](C(=O)Nc3cc(C(F)(F)F)ccc3C(F)(F)F)CC[C@@H]12 [dutasteride] | complete inhibition at 0.1 and 0.01 µg/mL; 16.5% at 0.001
